{"source": "paper PMC4125376", "about": "(Drug Target Insights, 2014)", "biological_target": "Babesia microti lactate dehydrogenase (BmLDH) (Babesia microti, UniProt I7J7V6)", "sequence (I7J7V6 1-332)": "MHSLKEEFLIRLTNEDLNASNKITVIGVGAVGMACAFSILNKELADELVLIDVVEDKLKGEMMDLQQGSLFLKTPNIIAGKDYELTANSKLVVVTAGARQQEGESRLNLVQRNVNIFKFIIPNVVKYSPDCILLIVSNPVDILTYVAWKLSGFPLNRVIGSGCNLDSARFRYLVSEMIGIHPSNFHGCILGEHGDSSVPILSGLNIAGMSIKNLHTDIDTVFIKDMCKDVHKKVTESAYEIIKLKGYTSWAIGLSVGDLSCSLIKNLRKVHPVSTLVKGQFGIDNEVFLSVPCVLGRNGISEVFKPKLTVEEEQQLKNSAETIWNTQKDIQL", "assay": "NADH formation at […] nm, […] NAD+ and […] lactate, non-linear regression", "format": "biochemical"}
{"smiles": "Cc1cc2c(C(C)C)c(O)c(O)c(C=O)c2c(O)c1-c1c(C)cc2c(C(C)C)c(O)c(O)c(C=O)c2c1O", "note": "[gossypol]", "values": [{"measurement": "IC50", "result": "345 ± 1.11", "unit": "nM"}]}
